Data taken from US20260256771A1, “GALUNISERTIB FOR USE IN THE TREATMENT OF ANDROGENIC ALOPECIA” (SAÚDE VIÁVEL, S.A., priority 2022, published 2026).

How the values were obtained:
[1] = system: TGFβ2; experiment: qRT-PCR of TGFβ transcripts in dermal papilla isolated from HFOCs; assay type: cell-based, human; settings: DP isolated from human HFs cultured ex vivo for 48 h; DHT-treated (1 μM) vs. untreated HFOCs
Text: Concentration and purity are ascertained in a NanoDrop spectrophotometer.
(§1) In addition, only anagen hair follicles are used.
(§2) Hair growth percentages is normalized to day 0.

[2] = system: TGFβ1; settings: DP isolated from human HFs cultured ex vivo for 48 h; DHT-treated (1 μM) vs. untreated HFOCs
Method: (§3) For RNA isolation and Quantitative Real-Time PCR (qPCR), Qiagen RNeasy kit (Qiagen, Germany) is used to isolate RNA. Concentration and purity are ascertained in a NanoDrop spectrophotometer. 600 ng of RNA are reverse transcribed into complementary DNA with iScript™ cDNA Synthesis Kit. Quantitative real-time polymerase chain reactions (qPCRs) are performed in a CFX384 Touch™ Real-Time PCR Detection System (Bio-Rad Laboratories). 10 μl reaction mixes are prepared consisting of iTaq™ Universal SYBR® Green Supermix (Bio-Rad Laboratories), forward and reverse primers (at 125 nM each) and cDNA (30 ng). The amplification program used is: 95° C. for 3 min, followed by 39 cycles of 95° C. for 10 s, 60° C. for 35 s, and melt curve from 55° C. to 95° C. with 0.5° C. increment for 10 s. All primers are designed to span at least one […]. Transcript levels are quantified by the 2-ΔΔCt method. ΔCt values are determined by subtracting the geometrical mean of the Ct values for GAPDH and UBQ from the mean target gene Ct value.
(§4) Hair grafts are obtained from male patients aged between 18-55 years with informed consent. A total of 10-20 micrografts are harvested from the occipital scalp of patients diagnosed with androgenic alopecia and undergoing autologous hair transplantation by the routine FUE technique.

[3] = system: TGFβ3; settings: DP isolated from human HFs cultured ex vivo for 48 h; DHT-treated (1 μM) vs. untreated HFOCs
Method: as §3, §4

[4] = system: phosphorylated SMAD2 (p-SMAD2); experiment: Western blot of phospho-SMAD2 in hair bulbs of HFOCs; assay type: cell-based, human; settings: untreated vs DHT-treated HFOCs, 72 h
Method: For western blot, hair bulbs are dissected from HFOCs treated with DMSO, DHT and Galunisertib for 72 h. Upon rinse in PBS, hair bulbs are lysed in Laemmli buffer (without bromophenol blue) with Halt Protease Inhibitor Cocktail and Halt Phosphatase Inhibitor Cocktail, and lysates are sonicated. Lysates from 10 hair bulbs are used for each condition tested. Total extracts are then loaded in SDS-polyacrylamide gels and transferred onto nitrocellulose membranes for western blot analysis. Membranes are blocked during 1 h with TBS+5% BSA. Primary and secondary antibodies are diluted in TBS+2% BSA accordingly to Supplementary Table 1. Signal is detected using Clarity Western ECL Substrate reagent. A GS-800 calibrated densitometer with Quantity One 1-D Analysis Software 4.6 (Bio-Rad Laboratories) is used for quantitative analysis of protein levels.
as §1, §2

SMILES: C[C@]12CCC(=O)C[C@@H]1CC[C@@H]1[C@@H]2CC[C@]2(C)[C@@H](O)CC[C@@H]12 [DHT, dihydrotestosterone]
- TGFβ2 transcript levels in DP [1]: slightly increased
- TGFβ1 transcript levels in DP [2]: remaining unchanged
- TGFβ3 transcript levels in DP [3]: remaining unchanged
- p-SMAD2 protein levels in hair bulbs [4]: equivalent
